Experimental data published in ChEMBL document CHEMBL5034026, “Design, synthesis and evaluation of 2'-acetylene-7-deaza-adenosine phosphoamidate derivatives as anti-EV71 and anti-EV-D68 agents” (Eur J Med Chem, 2021).

Columns and labels:
[1] = Selectivity index, ratio of CC50 for human RD cells to IC50 for Enterovirus D68 infected in human RD cells; type: toxicity, cell-based; conditions: read-out: Selectivity Index
[2] = tested on: Enterovirus A71; assay: Antiviral activity against Enterovirus A71 infected in human RD cells assessed as inhibition of viral replication measured after 4 days by Cell Titer-Glo luminescent cell viability assay; type: functional, organism-based; conditions: Enterovirus A, 96 h
[3] = (§1) Cytotoxicity against human RD cells assessed as reduction in cell viability by Cell Titer-Glo luminescent cell viability assay; type: cell-based; conditions: RD cells
[4] = tested on: enterovirus D68; assay: Antiviral activity against Enterovirus D68 infected in human RD cells assessed as inhibition of viral replication measured after 4 days by Cell Titer-Glo luminescent cell viability assay; type: functional, organism-based; conditions: Enterovirus D, 96 h
[5] = Tmax in CD-1 mouse assessed as parent NITD008 level at 5 mg/kg, iv by LC-MS/MS analysis; type: ADME, organism-based; conditions: in vivo
[6] = AUCinf in CD-1 mouse assessed as parent NITD008 level at 25 mg/kg, po by LC-MS/MS analysis; type: ADME, organism-based; set-up: route oral, time infinity, dose 25 mg/kg; conditions: in vivo
[7] = Selectivity index, ratio of CC50 for human RD cells to IC50 for Enterovirus A71 infected in human RD cells; type: toxicity, cell-based; conditions: read-out: Selectivity Index
[8] = Half life in CD-1 mouse assessed as parent NITD008 level at 5 mg/kg, iv by LC-MS/MS analysis; type: ADME, organism-based; conditions: in vivo
[9] = Cmax in CD-1 mouse assessed as parent NITD008 level at 5 mg/kg, iv by LC-MS/MS analysis; type: ADME, organism-based; set-up: route intravenous, dose 5 mg/kg; conditions: in vivo
[10] = AUCinf in CD-1 mouse assessed as parent NITD008 level at 5 mg/kg, iv by LC-MS/MS analysis; type: ADME, organism-based; set-up: route intravenous, time infinity, dose 5 mg/kg; conditions: in vivo
[11] = AUClast in CD-1 mouse assessed as parent NITD008 level at 5 mg/kg, iv by LC-MS/MS analysis; type: ADME, organism-based; set-up: route intravenous, time 0 - last, dose 5 mg/kg; conditions: in vivo
[12] = Tmax in CD-1 mouse assessed as parent NITD008 level at 25 mg/kg, po by LC-MS/MS analysis; type: ADME, organism-based; conditions: in vivo
[13] = AUClast in CD-1 mouse assessed as parent NITD008 level at 25 mg/kg, po by LC-MS/MS analysis; type: ADME, organism-based; set-up: route oral, time 0 - last, dose 25 mg/kg; conditions: in vivo
[14] = Cmax in CD-1 mouse assessed as parent NITD008 level at 25 mg/kg, po by LC-MS/MS analysis; type: ADME, organism-based; set-up: route oral, dose 25 mg/kg; conditions: in vivo
[15] = Half life in CD-1 mouse assessed as parent NITD008 level at 25 mg/kg, po by LC-MS/MS analysis; type: ADME, organism-based; conditions: in vivo
[16] = tested on: RD; assay: as §1; type: cell-based; conditions: rd

C#C[C@@]1(O)[C@H](O)[C@@H](COP(=O)(N[C@@H](C)C(=O)OCCCCC)Oc2ccccc2)O[C@H]1n1ccc2c(N)ncnc21 (stereo not given in full)
selectivity ratio [1]: 99.9
IC50 [2]: 300 nM
CC50 [3]: 52900 nM
IC50 [4]: 530 nM

C#C[C@@]1(O)[C@H](O)[C@@H](COP(=O)(N[C@@H](C)C(=O)OCCCCCC)Oc2ccccc2)O[C@H]1n1ccc2c(N)ncnc21 (stereo not given in full)
Tmax [5]: 1.98 min
AUC [6]: 368 ng·h/mL
selectivity ratio [7]: 262
selectivity ratio [1]: 94.5
IC50 [2]: 130 nM
t1/2 [8]: 4.05 h
Cmax [9]: 1403 ng/mL
AUC [10]: 373 ng·h/mL
AUClast [11]: 359 ng·h/mL
CC50 [3]: 34000 nM
Tmax [12]: 0.14 h
AUClast [13]: 334 ng·h/mL
Cmax [14]: 103 ng/mL
IC50 [4]: 360 nM
t1/2 [15]: 5.39 h

C#C[C@@]1(O)[C@H](O)[C@@H](COP(=O)(N[C@@H](C)C(=O)OC2CCCCC2)Oc2ccccc2)O[C@H]1n1ccc2c(N)ncnc21 (stereo not given in full)
Tmax [5]: 1.98 min
AUC [6]: 281 ng·h/mL
selectivity ratio [7]: 117
selectivity ratio [1]: 131
IC50 [2]: 190 nM
t1/2 [8]: 9.8 h
Cmax [9]: 1421 ng/mL
AUC [10]: 558 ng·h/mL
AUClast [11]: 522 ng·h/mL
CC50 [3]: 22200 nM
Tmax [12]: 0.5 h
AUClast [13]: 257 ng·h/mL
Cmax [14]: 70 ng/mL
IC50 [4]: 170 nM
t1/2 [15]: 5.68 h

C#C[C@@]1(O)[C@H](O)[C@@H](COP(=O)(N[C@H](Cc2ccccc2)C(=O)OC(C)C)Oc2ccccc2)O[C@H]1n1ccc2c(N)ncnc21 (stereo not given in full)
selectivity ratio [7]: 1.66
selectivity ratio [1]: 2.22
IC50 [2]: 8160 nM
CC50 [3]: 13500 nM
IC50 [4]: 6080 nM

C#C[C@@]1(O)[C@H](O)[C@@H](COP(=O)(N[C@H](CC(C)C)C(=O)OC(C)C)Oc2ccccc2)O[C@H]1n1ccc2c(N)ncnc21 (stereo not given in full)
selectivity ratio [7]: 125
selectivity ratio [1]: 3.7
IC50 [2]: 550 nM
CC50 [3]: 68700 nM
IC50 [4]: 18600 nM

C#C[C@@]1(O)[C@H](O)[C@@H](COP(=O)(N[C@H](C(=O)OC)C(C)C)Oc2ccccc2)O[C@H]1n1ccc2c(N)ncnc21 (stereo not given in full)
selectivity ratio [7]: > 72
selectivity ratio [1]: > 6.61
IC50 [2]: 1390 nM
CC50 [16]: > 100000 nM
IC50 [4]: 2650 nM

C#C[C@@]1(O)[C@H](O)[C@@H](COP(=O)(N[C@@H](Cc2ccccc2)C(=O)OC(C)C)Oc2ccccc2)O[C@H]1n1ccc2c(N)ncnc21 (stereo not given in full)
selectivity ratio [7]: 385
selectivity ratio [1]: 5.52
IC50 [2]: 180 nM
CC50 [3]: 69200 nM
IC50 [4]: 12600 nM

C#C[C@@]1(O)[C@H](O)[C@@H](COP(=O)(N[C@@H](C)C(=O)OC(CC)CC)Oc2ccccc2)O[C@H]1n1ccc2c(N)ncnc21 (stereo not given in full)
selectivity ratio [7]: > 139
selectivity ratio [1]: > 171
IC50 [2]: 1440 nM
CC50 [16]: > 200000 nM
IC50 [4]: 1170 nM

C#C[C@@]1(O)[C@H](O)[C@@H](COP(=O)(N[C@@H](C)C(=O)OCCC)Oc2ccccc2)O[C@H]1n1ccc2c(N)ncnc21 (stereo not given in full)
selectivity ratio [7]: < 0.47
selectivity ratio [1]: 105
IC50 [2]: > 100000 nM
CC50 [3]: 47400 nM
IC50 [4]: 450 nM

C#C[C@@]1(O)[C@H](O)[C@@H](COP(=O)(N[C@@H](C)C(=O)OC2CCCC2)Oc2ccccc2)O[C@H]1n1ccc2c(N)ncnc21 (stereo not given in full)
IC50 [2]: 580 nM
IC50 [4]: 250 nM

C#C[C@@]1(O)[C@H](O)[C@@H](COP(=O)(N[C@@H](C(=O)OC)C(C)C)Oc2ccccc2)O[C@H]1n1ccc2c(N)ncnc21 (stereo not given in full)
selectivity ratio [7]: > 7.86
selectivity ratio [1]: > 8.55
IC50 [2]: 12700 nM
CC50 [16]: > 100000 nM
IC50 [4]: 21600 nM

C#C[C@@]1(O)[C@H](O)[C@@H](COP(=O)(N[C@@H](C)C(=O)OC)Oc2ccccc2)O[C@H]1n1ccc2c(N)ncnc21 (stereo not given in full)
selectivity ratio [7]: > 86.2
selectivity ratio [1]: > 59.9
IC50 [2]: 1160 nM
CC50 [16]: > 100000 nM
IC50 [4]: 1670 nM

C#C[C@@]1(O)[C@H](O)[C@@H](COP(=O)(N[C@@H](C)C(=O)OCC)Oc2ccccc2)O[C@H]1n1ccc2c(N)ncnc21 (stereo not given in full)
selectivity ratio [7]: 40.2
selectivity ratio [1]: 27.1
IC50 [2]: 830 nM
CC50 [3]: 33400 nM
IC50 [4]: 1230 nM

C#C[C@@]1(O)[C@H](O)[C@@H](COP(=O)(N[C@@H](C)C(=O)OC(C)C)Oc2ccccc2)O[C@H]1n1ccc2c(N)ncnc21 (stereo not given in full)
selectivity ratio [7]: 17.1
selectivity ratio [1]: 8.73
IC50 [2]: 910 nM
CC50 [3]: 15500 nM
IC50 [4]: 1780 nM

C#C[C@@]1(O)[C@H](O)[C@@H](COP(=O)(N[C@H](Cc2c[nH]c3ccccc23)C(=O)OC(C)C)Oc2ccccc2)O[C@H]1n1ccc2c(N)ncnc21 (stereo not given in full)
selectivity ratio [7]: 25.9
selectivity ratio [1]: 5.38
IC50 [2]: 1620 nM
CC50 [3]: 42000 nM
IC50 [4]: 7810 nM

C#C[C@@]1(O)[C@H](O)[C@@H](COP(=O)(N[C@@H](C)C(=O)OCCCC)Oc2ccccc2)O[C@H]1n1ccc2c(N)ncnc21 (stereo not given in full)
selectivity ratio [7]: > 345
selectivity ratio [1]: > 556
IC50 [2]: 580 nM
CC50 [16]: > 200000 nM
IC50 [4]: 360 nM

C#C[C@@]1(O)[C@H](O)[C@@H](COP(=O)(NCC(=O)OC(C)C)Oc2ccccc2)O[C@H]1n1ccc2c(N)ncnc21 (stereo not given in full)
selectivity ratio [7]: > 15.1
selectivity ratio [1]: > 14.1
IC50 [2]: 6610 nM
CC50 [16]: > 100000 nM
IC50 [4]: 7930 nM

C#C[C@@]1(O)[C@H](O)[C@@H](COP(=O)(N[C@@H](Cc2c[nH]c3ccccc23)C(=O)OC(C)C)Oc2ccccc2)O[C@H]1n1ccc2c(N)ncnc21 (stereo not given in full)
selectivity ratio [7]: 11.4
selectivity ratio [1]: 13.4
IC50 [2]: 1210 nM
CC50 [3]: 13800 nM
IC50 [4]: 1030 nM

C#C[C@@]1(O)[C@H](O)[C@@H](COP(=O)(N[C@H](CCSC)C(=O)OC(C)C)Oc2ccccc2)O[C@H]1n1ccc2c(N)ncnc21 (stereo not given in full)
selectivity ratio [1]: 0.4
IC50 [4]: 49200 nM

C#C[C@@]1(O)[C@H](O)[C@@H](COP(=O)(N[C@@H](C)C(=O)OCC(C)C)Oc2ccccc2)O[C@H]1n1ccc2c(N)ncnc21 (stereo not given in full)
selectivity ratio [1]: 169
IC50 [4]: 240 nM

C#C[C@@]1(O)[C@H](O)[C@@H](COP(=O)(N[C@H](C)C(=O)OC(C)C)Oc2ccccc2)O[C@H]1n1ccc2c(N)ncnc21 (stereo not given in full)
selectivity ratio [7]: > 15.8
selectivity ratio [1]: > 8.75
IC50 [2]: 6310 nM
CC50 [16]: > 100000 nM
IC50 [4]: 13400 nM

C#C[C@@]1(O)[C@H](O)[C@@H](COP(=O)(N[C@@H](CC(C)C)C(=O)OC(C)C)Oc2ccccc2)O[C@H]1n1ccc2c(N)ncnc21 (stereo not given in full)
selectivity ratio [7]: 33.8
selectivity ratio [1]: 51.2
IC50 [2]: 620 nM
CC50 [3]: 21000 nM
IC50 [4]: 410 nM

C#C[C@@]1(O)[C@H](O)[C@@H](COP(=O)(N[C@@H](CCSC)C(=O)OC(C)C)Oc2ccccc2)O[C@H]1n1ccc2c(N)ncnc21 (stereo not given in full)
selectivity ratio [7]: 11.3
selectivity ratio [1]: 2.92
IC50 [2]: 790 nM
CC50 [3]: 8950 nM
IC50 [4]: 3060 nM
